# Experimental data from patent publication US11207312B2, “Metallo-beta-lactamase inhibitors and methods of use thereof” (priority 2017, dated 2021).
# Experiments:
# [1] = test system: Klebsiella pneumoniae expressing VIM-1 (IHMA599644); format: cell-based; details: with imipenem 1 μg/ml; 95% inhibition of bacterial growth
# Method in brief: (§1)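 Clinical MBL-producing strains were grown overnight at 35 °C on blood agar, suspended in saline, diluted 1:100 into 1.1× CAMHB and exposed to test compound with imipenem at 1 μg/ml. After 22–24 h at 35 °C, absorbance gave MITC95: lowest compound concentration inhibiting 95% of growth.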
# [2] = test system: Escherichia coli expressing NDM-1 (CLB30016); format: cell-based; details: with imipenem 1 μg/ml; 95% inhibition of bacterial growth
# Method in brief: as §1
# [3] = test system: Serratia marcescens expressing IMP-1 (CL5741); format: cell-based; details: with imipenem 1 μg/ml; 95% inhibition of bacterial growth
# Method in brief: as §1
# [4] = test system: P. aeruginosa MB9799 (efflux-, IMP-1 plasmid); format: cell-based, Pseudomonas aeruginosa; details: efflux − (MB9799) strain; imipenem at 2 μg/mL; in the presence of a class A, C, D serine β-lactamase inhibitor closely related to relebactam
# Method in brief: (§2)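 Isogenic P. aeruginosa PAO1 strains (efflux+ and multiple-efflux-pump-disrupted) carrying plasmid IMP-1, with inducible AmpC, tested by broth microdilution. Imipenem and/or ceftazidime fixed, usually at CLSI breakpoint, plus fixed class A/C β-lactamase inhibitor; titrated MBL inhibitor concentration restoring susceptibility recorded and compared between strains as efflux fold difference.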
# [5] = target: IMP-1 (Serratia marcescens, UniProt P52699); experiment: biochemical; details: CCF2-FA fluorescence assay, 2 hours at 25° C.; read-out: IMP1 IC50
# Method in brief: (§3)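 IC50s come from 4-parameter fits of inhibition versus inhibitor concentration, tested from 20 μM down to 0.00063 μM. Enzyme, CCF2-FA (1.25 μM) and inhibitor react 2 h at 25° C, pH 7, with 10 μM ZnSO4 and 0.005% Tween-20.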
# [6] = target: VIM-1 (Pseudomonas aeruginosa (strain ATCC 15692 / DSM 22644 / CIP 104116 / JCM 14847 / LMG 12228 / 1C / PRS 101 / PAO1), UniProt A0A0F7KYQ8); experiment: biochemical; details: CCF2-FA fluorescence assay, 2 hours at 25° C.; read-out: VIM1 IC50
# Method in brief: as §3
# [7] = test system: P. aeruginosa MB9798 (efflux+, IMP-1 plasmid); details: for MB9798 MITC95 P. aeruginosa uM Efflux WT: efflux + (MB9798) strain, imipenem at 2 μg/mL, in the presence of a class A, C, D serine β-lactamase inhibitor closely related to relebactam; for Efflux ratio: fold difference between efflux+ (MB9798) and efflux− (MB9799) strains
# Method in brief: as §2
# [8] = target: NDM-1 (Klebsiella pneumoniae, UniProt C7C422); experiment: biochemical; format: biochemical; details: CCF2-FA fluorescence assay, 2 hours at 25° C.
# Method in brief: as §3
# [9] = target: VIM-2 (Escherichia coli, UniProt Q5U7L7); experiment: biochemical; details: CCF2-FA fluorescence assay; read-out: VIM2 IC50
# Chain of NDM-1 (C7C422 whole entry, looked up, species assumed): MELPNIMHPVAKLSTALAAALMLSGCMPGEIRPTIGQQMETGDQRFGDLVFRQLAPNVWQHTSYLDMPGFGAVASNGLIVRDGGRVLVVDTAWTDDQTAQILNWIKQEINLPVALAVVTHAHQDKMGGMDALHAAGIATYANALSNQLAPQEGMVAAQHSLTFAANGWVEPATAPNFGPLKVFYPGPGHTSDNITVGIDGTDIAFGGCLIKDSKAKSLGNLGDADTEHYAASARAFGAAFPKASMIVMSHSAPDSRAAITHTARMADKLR
# Chain of IMP-1 (P52699 whole entry, looked up, species assumed): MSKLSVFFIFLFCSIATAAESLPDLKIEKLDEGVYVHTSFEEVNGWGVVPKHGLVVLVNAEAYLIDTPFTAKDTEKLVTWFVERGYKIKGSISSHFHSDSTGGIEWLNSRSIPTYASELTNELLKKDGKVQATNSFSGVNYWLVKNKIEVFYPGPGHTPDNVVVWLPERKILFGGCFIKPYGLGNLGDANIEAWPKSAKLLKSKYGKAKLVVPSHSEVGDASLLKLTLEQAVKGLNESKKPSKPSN
SMILES,IHMA599644 K. pneumoniae MITC95 VIM [1] [µM],CLB30016 E. coli MITC95 NDM [2] [µM],CL5741 S. marcescens MITC95 IMP [3] [µM],MB9799 MITC95 P. aeruginosa uM Efflux Mutant [4] [µM],IC50 [5] [pM],IC50 [6] [pM],MB9798 MITC95 P. aeruginosa uM Efflux WT [7] [µM],Efflux ratio [7],IC50 [8] [pM],IC50 [9] [pM]
"NS(=O)(=O)c1c(S(=O)(=O)N[C@@H]2CCNC2)ccc(N2CCOC(CCO)C2)c1-c1nnn[nH]1 (stereo partly drawn) [Example 105, 4-[2-(2-hydroxyethyl)morpholin-4-yl]-N1-[(3R)-pyrrolidin-3-yl]-3-(1H-tetrazol-5-yl)benzene-1,2-disulfonamide]",12.50,6.25,6.25,6.25,1160,960,12.50,2.00,250,1790
"NS(=O)(=O)c1c(S(=O)(=O)N[C@@H]2CCNC2)ccc(N2CCC(Cc3ccccn3)CC2)c1-c1nnn[nH]1 [Example 106, 4-[4-(pyridin-2-ylmethyl)piperidin-1-yl]-N1-[(3R)-pyrrolidin-3-yl]-3-(1H-tetrazol-5-yl)benzene-1,2-disulfonamide]",6.25,6.25,3.13,3.13,120,100,50.00,16.00,60,460
"NS(=O)(=O)c1c(S(=O)(=O)N[C@@H]2CCNC2)ccc(N2CCCC(CO)C2)c1-c1nnn[nH]1 (stereo partly drawn) [Example 107, 4-[3-(hydroxymethyl)piperidin-1-yl]-N1-[(3R)-pyrrolidin-3-yl]-3-(1H-tetrazol-5-yl)benzene-1,2-disulfonamide]",6.25,3.13,3.13,1.56,1100,190,3.13,2.00,250,420
"NS(=O)(=O)c1c(S(=O)(=O)N[C@@H]2CCNC2)ccc(N2CCCC(C(=O)NCCCO)C2)c1-c1nnn[nH]1 (stereo partly drawn) [Example 108, N-(3-hydroxypropyl)-1-{4-[(3R)-pyrrolidin-3-ylsulfamoyl]-3-sulfamoyl-2-(1H-tetrazol-5-yl)phenyl}piperidine-3-carboxamide]",12.50,6.25,12.50,6.25,2390,500,12.50,2.00,710,1770
"NS(=O)(=O)c1c(S(=O)(=O)N[C@@H]2CCNC2)ccc(N2CCN(C(=O)CO)CC2)c1-c1nnn[nH]1 [Example 109, 4-[4-(hydroxyacetyl)piperazin-1-yl]-N1-[(3R)-pyrrolidin-3-yl]-3-(1H-tetrazol-5-yl)benzene-1,2-disulfonamide]",6.25,3.13,3.13,3.13,2210,430,3.13,1.00,510,1900
"NS(=O)(=O)c1c(S(=O)(=O)N[C@@H]2CCNC2)ccc(N2CCC(Oc3ccccn3)CC2)c1-c1nnn[nH]1 [Example 110, 4-[4-(pyridin-2-yloxy)piperidin-1-yl]-N1-[(3R)-pyrrolidin-3-yl]-3-(1H-tetrazol-5-yl)benzene-1,2-disulfonamide]",6.25,3.13,3.13,1.56,100,120,50.00,31.99,60,470
